Experimental data as given in the NIST ThermoML archive (doi:10.1016/j.jct.2013.11.022).

Experiment: mn = molality of the nth substance listed, in mol/kg
Details: 101.33 kPa, Liquid; for viscosity: Capillary tube (Ostwald / Ubbelohde) method; for speed of sound: Sing-around technique in a fixed-path interferometer; for mass density: Vibrating tube method

NCC(=O)O [2-aminoacetic acid] + O
Details	mass density [kg/m3]	speed of sound [m/s]	viscosity [mPa·s]
293.15 K, m1 = 0.05	999.804	1486.2	1.013
293.15 K, m1 = 0.0999	1001.4	1488.6	1.022
293.15 K, m1 = 0.1499	1002.99	1491.1	1.029
293.15 K, m1 = 0.2001	1004.57	1493.6	1.036
293.15 K, m1 = 0.2504	1006.14	1496	1.039
293.15 K, m1 = 0.2999	1007.67	1498.4	1.048
293.15 K, m1 = 0.3501	1009.21	1500.8	1.056
293.15 K, m1 = 0.3998	1010.72	1503.2	1.06
298.15 K, m1 = 0.05	–	1500.3	0.8991
298.15 K, m1 = 0.0999	1000.21	1502.7	0.908
298.15 K, m1 = 0.1499	1001.78	1505.1	0.9168
298.15 K, m1 = 0.2001	1003.34	1507.5	0.9232
298.15 K, m1 = 0.2504	1004.9	1510	0.9281
298.15 K, m1 = 0.2999	1006.41	1512.3	0.933
298.15 K, m1 = 0.3501	1007.93	1514.7	0.9379
298.15 K, m1 = 0.3998	1009.43	1517	0.946
303.15 K, m1 = 0.05	–	1512.6	0.8077
303.15 K, m1 = 0.0999	998.773	1514.9	0.8177
303.15 K, m1 = 0.1499	1000.33	1517.3	0.8258
303.15 K, m1 = 0.2001	1001.88	1519.6	0.8319
303.15 K, m1 = 0.2504	1003.42	1522	0.8398
303.15 K, m1 = 0.2999	1004.92	1524.2	0.8434
303.15 K, m1 = 0.3501	1006.43	1526.5	0.8511
303.15 K, m1 = 0.3998	1007.92	1528.8	0.8533
308.15 K, m1 = 0.05	995.577	1523.1	0.7296
308.15 K, m1 = 0.0999	997.132	1525.4	0.7366
308.15 K, m1 = 0.1499	998.677	1527.7	0.7404
308.15 K, m1 = 0.2001	1000.22	1530	0.7474
308.15 K, m1 = 0.2504	1001.75	1532.2	0.7518
308.15 K, m1 = 0.2999	1003.24	1534.4	0.7578
308.15 K, m1 = 0.3501	1004.74	1536.7	0.7641
308.15 K, m1 = 0.3998	1006.21	1538.9	0.7679
313.15 K, m1 = 0.05	–	1532.1	0.6609
313.15 K, m1 = 0.0999	–	1534.3	0.6662
313.15 K, m1 = 0.1499	–	1536.5	0.6686
313.15 K, m1 = 0.2001	–	1538.7	0.6721
313.15 K, m1 = 0.2504	999.881	1540.9	0.6759
313.15 K, m1 = 0.2999	1001.36	1543.1	0.6798
313.15 K, m1 = 0.3501	1002.86	1545.3	0.6851
313.15 K, m1 = 0.3998	1004.33	1547.5	0.6881

CCCCCCCCCCCCOS(=O)(=O)[O-].[Na+] [sodium dodecyl sulfate] + O
Details	mass density [kg/m3]	speed of sound [m/s]	viscosity [mPa·s]
293.15 K, m1 = 0.0001	998.198	1482.9	1.014
293.15 K, m1 = 0.0003	998.209	1482.9	1.014
293.15 K, m1 = 0.0005	998.221	1483	1.016
293.15 K, m1 = 0.002	998.31	1483.2	1.02
293.15 K, m1 = 0.004	998.425	1483.5	1.02
293.15 K, m1 = 0.006	998.538	1483.7	1.024
293.15 K, m1 = 0.008	998.647	1484	1.026
293.15 K, m1 = 0.01	998.75	1484.2	1.027
293.15 K, m1 = 0.012	998.851	1484.5	1.029
293.15 K, m1 = 0.014	998.949	1484.6	1.034
293.15 K, m1 = 0.016	999.048	1484.8	1.036
293.15 K, m1 = 0.018	999.145	1484.9	1.04
293.15 K, m1 = 0.02	999.237	1485	1.042
293.15 K, m1 = 0.022	999.338	1485.2	1.047
293.15 K, m1 = 0.024	999.426	1485.3	1.052
298.15 K, m1 = 0.0001	997.034	1497	0.895
298.15 K, m1 = 0.0003	997.045	1497	0.8952
298.15 K, m1 = 0.0005	997.057	1497.1	0.8955
298.15 K, m1 = 0.002	997.144	1497.3	0.8963
298.15 K, m1 = 0.004	997.255	1497.6	0.8969
298.15 K, m1 = 0.006	997.365	1497.8	0.8976
298.15 K, m1 = 0.008	997.472	1498.1	0.8981
298.15 K, m1 = 0.01	997.569	1498.4	0.899
298.15 K, m1 = 0.012	997.67	1498.6	0.9008
298.15 K, m1 = 0.014	997.768	1498.7	0.9073
298.15 K, m1 = 0.016	997.867	1498.9	0.9091
298.15 K, m1 = 0.018	997.957	1499	0.9114
298.15 K, m1 = 0.02	998.048	1499.1	0.9136
298.15 K, m1 = 0.022	998.142	1499.3	0.9191
298.15 K, m1 = 0.024	998.232	1499.4	0.9211
303.15 K, m1 = 0.0001	995.633	1509.3	0.801
303.15 K, m1 = 0.0003	995.644	1509.4	0.8015
303.15 K, m1 = 0.0005	995.655	1509.4	0.8018
303.15 K, m1 = 0.002	995.74	1509.6	0.8024
303.15 K, m1 = 0.004	995.848	1509.9	0.8028
303.15 K, m1 = 0.006	995.955	1510.2	0.8032
303.15 K, m1 = 0.008	996.058	1510.4	0.8037
303.15 K, m1 = 0.01	996.155	1510.7	0.8039
303.15 K, m1 = 0.012	996.252	1510.8	0.8054
303.15 K, m1 = 0.014	996.348	1511	0.8085
303.15 K, m1 = 0.016	996.441	1511.2	0.8114
303.15 K, m1 = 0.018	996.536	1511.3	0.8135
303.15 K, m1 = 0.02	996.624	1511.4	0.8161
303.15 K, m1 = 0.022	996.718	1511.6	0.8193
303.15 K, m1 = 0.024	996.807	1511.7	0.8206
308.15 K, m1 = 0.0001	994.016	1520	0.7228
308.15 K, m1 = 0.0003	994.026	1520	0.7232
308.15 K, m1 = 0.0005	994.037	1520	0.7236
308.15 K, m1 = 0.002	994.12	1520.2	0.7241
308.15 K, m1 = 0.004	994.224	1520.5	0.7245
308.15 K, m1 = 0.006	994.327	1520.8	0.725
308.15 K, m1 = 0.008	994.429	1521	0.7253
308.15 K, m1 = 0.01	994.524	1521.3	0.7259
308.15 K, m1 = 0.012	994.619	1521.5	0.7264
308.15 K, m1 = 0.014	994.715	1521.6	0.7279
308.15 K, m1 = 0.016	994.806	1521.8	0.73
308.15 K, m1 = 0.018	994.898	1521.9	0.7345
308.15 K, m1 = 0.02	994.988	1522	0.7388
308.15 K, m1 = 0.022	995.076	1522.2	0.7422
308.15 K, m1 = 0.024	995.164	1522.3	0.7465
313.15 K, m1 = 0.0001	992.2	1529	0.6564
313.15 K, m1 = 0.0003	992.21	1529	0.6566
313.15 K, m1 = 0.0005	992.22	1529.1	0.657
313.15 K, m1 = 0.002	992.299	1529.3	0.6576
313.15 K, m1 = 0.004	992.402	1529.5	0.6585
313.15 K, m1 = 0.006	992.5	1529.8	0.6599
313.15 K, m1 = 0.008	992.601	1530.1	0.6616
313.15 K, m1 = 0.01	992.696	1530.3	0.6628
313.15 K, m1 = 0.012	992.789	1530.5	0.6646
313.15 K, m1 = 0.014	992.884	1530.7	0.6667
313.15 K, m1 = 0.016	992.975	1530.8	0.6689
313.15 K, m1 = 0.018	993.061	1530.9	0.6718
313.15 K, m1 = 0.02	993.153	1531.1	0.6747
313.15 K, m1 = 0.022	993.239	1531.2	0.6775
313.15 K, m1 = 0.024	993.323	1531.3	0.6794
